For 30 molecules, IC50 results are on record in patent EP4678634A1, “ANDROGEN RECEPTOR MODULATORS AND USES THEREOF” (Haihe Biopharma Co., Ltd., priority 2023, dated 2024).

Molecules are shown by their SMILES.

This experiment addresses T1, Androgen receptor (AR) (Homo sapiens, UniProt P10275).
T1 construct: expressed in transfected cells; host or cells: HEK293T (AR+ARE/Luc)
T1 sequence (P10275 1-920): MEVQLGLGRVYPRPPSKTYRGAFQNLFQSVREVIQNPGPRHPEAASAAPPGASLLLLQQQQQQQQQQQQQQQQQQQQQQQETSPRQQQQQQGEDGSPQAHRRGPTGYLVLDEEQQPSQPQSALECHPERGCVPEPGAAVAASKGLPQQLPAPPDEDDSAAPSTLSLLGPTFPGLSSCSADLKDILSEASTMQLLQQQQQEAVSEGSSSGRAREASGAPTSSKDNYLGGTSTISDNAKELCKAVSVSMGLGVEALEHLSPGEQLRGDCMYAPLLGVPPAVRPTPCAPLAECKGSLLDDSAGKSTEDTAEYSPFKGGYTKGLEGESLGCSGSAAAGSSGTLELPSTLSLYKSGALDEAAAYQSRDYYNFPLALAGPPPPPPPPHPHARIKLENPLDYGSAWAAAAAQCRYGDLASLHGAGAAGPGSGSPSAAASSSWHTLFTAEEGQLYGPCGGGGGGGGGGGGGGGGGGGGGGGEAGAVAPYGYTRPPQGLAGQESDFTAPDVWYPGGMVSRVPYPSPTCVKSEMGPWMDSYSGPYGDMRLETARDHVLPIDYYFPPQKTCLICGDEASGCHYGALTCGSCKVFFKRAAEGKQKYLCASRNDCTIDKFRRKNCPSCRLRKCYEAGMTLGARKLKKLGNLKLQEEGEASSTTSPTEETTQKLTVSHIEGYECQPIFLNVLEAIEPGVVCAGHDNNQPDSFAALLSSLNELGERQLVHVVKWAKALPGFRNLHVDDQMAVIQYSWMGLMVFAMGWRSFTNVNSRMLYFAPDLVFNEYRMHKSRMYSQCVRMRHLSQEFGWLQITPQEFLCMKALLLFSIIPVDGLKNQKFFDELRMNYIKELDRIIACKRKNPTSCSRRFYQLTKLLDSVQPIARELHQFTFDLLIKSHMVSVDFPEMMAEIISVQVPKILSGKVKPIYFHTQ
The experiment is described as follows: Androgen receptor (AR) reporter gene assay (luciferase). It is filed as cell-based. The note with it: AR+ARE/Luc HEK293T cells, stimulated with 11-KDHT, 24h incubation, Bright-Lite luminescence; read-out: HEK293 Luc IC50. On the procedure:
Androgen receptor (AR) reporter gene assay
Experimental reagents: 11-Ketodihydrotestosterone (11-KDHT) was purchased from MCE (cat.HY-135794); Enzalutamide (MDV3100) was purchased from Selleck (cat.S1250); Bright-Lite Luciferase Assay kit was purchased from Vazyme (cat.DD1204-01);
• 1. dissolve the described compounds in 100% DMSO at a final concentration of 10 mM. 100 nL each of 400X compound to be tested and 400X 11-KDHT (40 nM) were added to a 384-well assay plate with Echo, followed by 20 µL of complete medium, and centrifuged at 1000 rpm for 1 min, and oscillated for 20-30 min at room temperature. • 2. 20 µL of AR+ARE/Luc HEK293T cells (10,000 cells/well) were inoculated into the assay plate containing the compounds and 11-KDHT, and centrifuged at 1000 rpm for 1 min. The assay plate was incubated in a 37 °C CO2 incubator for 24h. • 3. 40 µL of Bright-Lite assay reagent was transferred to each well of the assay plate, centrifuged at 1000 rpm for 1 min, and shaken for 2 min at room temperature protected from light. Luminescence values (RLU) were measured using Envision. Based on the results, the IC50 values of the compounds described were calculated. Table 1 HEK293-Luc% inhibition IC50 of representative compounds
(In general: Reporter assays use an easily measured gene product as a stand-in for the process of interest.)
In general, IC50 refers to the concentration needed to halve the response being measured. With `CNc1ncc(C2CCCc3c2cc(C#N)c(OCCCl)c3Cl)cn1` (stereo not drawn) [HANT-247, 4-chloro-3-(2-chloroethoxy)-8-(2-(methylamino)pyrimidin-5-yl)-5,6,7,8-tetrahydronaphthalene-2-carbonitrile], the IC50 lay within 1 to 500 nM. To `N#Cc1cc2c(c(Cl)c1OCCCl)CCCC2c1cnc(NCCO)nc1` (stereo not drawn) [HANT-248, 4-chloro-3-(2-chloroethoxy)-8-(2-((2-hydroxyethyl)amino)pyrimidin-5-yl)-5,6,7,8-tetrahydrona phthalene-2-carbonitrile] belongs 1 to 500 nM; to `N#Cc1cc2c(c(Cl)c1OCCCl)CCCC2c1cnc(N)cn1` (stereo not drawn) [HANT-249], 500 to 1000 nM; to `N#Cc1cc2c(c(Cl)c1OCCCl)CCCC2Nc1cncnc1` (stereo not drawn) [HANT-250], 1 to 500 nM. To `N#Cc1cc2c(c(Cl)c1OCCCl)CCCC2Nc1cnc(N)nc1` (stereo not drawn) [HANT-251] belongs 1 to 500 nM.

`N#Cc1cc2c(c(Cl)c1OCCCl)CCCC2Nc1ccccn1` (stereo not drawn) [HANT-252]: the half-maximal inhibitory concentration (IC50) was in the range of 1 to 500 nM. The value for `N#Cc1cc2c(c(Cl)c1OCCCl)CCCC2Nc1cncc(F)c1` (stereo not drawn) [HANT-254] was 1 to 500 nM; that for `N#Cc1cc2c(c(Cl)c1OCCCl)CCCC2c1cccnc1` (stereo not drawn) [HANT-255] was 1 to 500 nM. The value for `N#Cc1cc2c(c(Cl)c1OCCCl)CCCC2c1cncc(N)c1` (stereo not drawn) [HANT-256] was 1000 to 2000 nM; that for `CCCOc1c(C#N)cc2c(c1Cl)CCCC2c1cnc(N)nc1` (stereo not drawn) [HANT-257] was 1 to 500 nM; that for `Cn1ccc(NC2CCCc3c2cc(C#N)c(OCCCl)c3Cl)cc1=O` (stereo not drawn) [HANT-261] was 500 to 1000 nM. As for `N#Cc1ccc(NC2CCCc3c2cc(C#N)c(OCCCl)c3Cl)cn1` (stereo not drawn) [HANT-262], the IC50 fell in the range of 1 to 500 nM. On to `CNC(=O)c1ccc(NC2CCCc3c2cc(C#N)c(OCCCl)c3Cl)cn1` (stereo not drawn) [HANT-263], for which the IC50 fell in the range of 1 to 500 nM. For the molecule `N#Cc1cc2c(c(Cl)c1OCCCl)CCCC2NC1CCCOC1` (stereo not drawn) [HANT-264], the concentration for half-maximal inhibition (IC50) was over 2000 nM. To `COc1cncc(NC2CCCc3c2cc(C#N)c(OCCCl)c3Cl)c1` (stereo not drawn) [HANT-266] belongs 1 to 500 nM; to `N#Cc1cc2c(c(Cl)c1OCCCl)CCCC2Oc1cccnc1` (stereo not drawn) [HANT-267], 1 to 500 nM; to `CCCOc1c(C#N)cc2c(c1Cl)CCCC2Nc1ccc2[nH]ncc2c1` (stereo not drawn) [HANT-268, 8-((1H-indazol-5-yl)amino)-4-chloro-3-propoxy-5,6,7,8-tetrahydronaphthalene-2-carbonitrile], 1 to 500 nM.

On to `CCOc1c(C#N)cc2c(c1Cl)CCCC2Nc1ccc2[nH]ncc2c1` (stereo not drawn) [HANT-269, 8-((1H-indazol-5-yl)amino)-4-chloro-3-ethoxy-5,6,7,8-tetrahydronaphthalene-2-carbonitrile], for which the IC50 is 1 to 500 nM. To `COc1ccc(C2CCCc3c2cc(C#N)c(OCCCl)c3Cl)cc1` (stereo not drawn) [HANT-334] belongs 1 to 500 nM; to `COc1ccc(C2CCCc3c2cc(C#N)c(OCCCl)c3Cl)cn1` (stereo not drawn) [HANT-335], 1 to 500 nM.

On to `Oc1ccc(C2CCCc3c2cc(Cl)c(OCCCl)c3Cl)cc1` (stereo not drawn) [HANT-336A, 4-(5,7-dichloro-6-(2-chloroethoxy)-1,2,3,4-tetrahydronaphthalen-1-yl)phenol], for which the half-inhibitory concentration (IC50) was 500 to 1000 nM. To `Oc1ccc(C2CCCc3c2cc(Cl)c(OCCCl)c3Cl)cc1` (stereo not drawn) [HANT-336B, 4-(5,7-dichloro-6-(2-chloroethoxy)-1,2,3,4-tetrahydronaphthalen-1-yl)phenol] belongs 1 to 500 nM; to `N#Cc1cc2c(c(Cl)c1OCCCl)CCCC2c1ccc2c(c1)C(=O)NC2` (stereo not drawn) [HANT-948], 500 to 1000 nM.

`Cn1nc(C2CCCc3c2cc(C#N)c(OCCCl)c3Cl)c2ccccc21` (stereo not drawn) [HANT-949]: the IC50 fell in the range of 1000 to 2000 nM. To `Cn1cc2c(n1)CN(C1CCCc3c1cc(C#N)c(OCCCl)c3Cl)C2` (stereo not drawn) [HANT-950, 4-Chloro-3-(2-chloroethoxy)-8-(2-methyl-2,6-dihydropyrrolo[3,4-c]pyrazol-5(4H)-yl)-5,6,7,8-t etrahydronaphthalene-2-carbonitrile] belongs 1000 to 2000 nM; to `N#Cc1cc2c(c(Cl)c1OCCCl)CCCC2c1ccc2c(c1)C(=O)NC2=O` (stereo not drawn) [HANT-977], 1 to 500 nM; to `N#Cc1cc2c(c(Cl)c1OCCCl)CCCC2c1ccc2n[nH]c(=O)n2c1` (stereo not drawn) [HANT-978], 1 to 500 nM.

In the case of `N#Cc1cc2c(c(Cl)c1OCCCl)CCCC2c1cc2c3c(cccc3c1)NC2=O` (stereo not drawn) [HANT-979, 4-Chloro-3-(2-chloroethoxy)-8-(2-oxo-1,2-dihydrobenzo[cd]indol-4-yl)-5,6,7,8-tetrahydronapht halene-2-carbonitrile], the IC50 fell in the range of 500 to 1000 nM. To `CN1C(=O)c2ccc(C3CCCc4c3cc(C#N)c(OCCCl)c4Cl)cc2C1=O` (stereo not drawn) [HANT-982] belongs 1 to 500 nM; to `CN1Cc2ccc(C3CCCc4c3cc(C#N)c(OCCCl)c4Cl)cc2C1=O` (stereo not drawn) [HANT-983], over 2000 nM.
